Measured values from patent US20040259942A1, “Modulation of stat activity” (priority 2001, published 2004).
Entries after “also recorded” stand apart in the source; their conditions may differ.

How the values were obtained:
[1] = target: T1, ErbB1 (Homo sapiens, UniProt P00533); assay: Tyrosine phosphorylation of ErbB1 (EGF-R): immunoprecipitation and anti-phosphotyrosine immunoblot; assay type: cell-based; conditions: MDA-MB-468 cells
T1 construct: Lysates were prepared, from which ErbB1 proteins were collected as immune complexes; endogenous in cells; host or cells: MDA-MB-468
T1 sequence (P00533 25-1210): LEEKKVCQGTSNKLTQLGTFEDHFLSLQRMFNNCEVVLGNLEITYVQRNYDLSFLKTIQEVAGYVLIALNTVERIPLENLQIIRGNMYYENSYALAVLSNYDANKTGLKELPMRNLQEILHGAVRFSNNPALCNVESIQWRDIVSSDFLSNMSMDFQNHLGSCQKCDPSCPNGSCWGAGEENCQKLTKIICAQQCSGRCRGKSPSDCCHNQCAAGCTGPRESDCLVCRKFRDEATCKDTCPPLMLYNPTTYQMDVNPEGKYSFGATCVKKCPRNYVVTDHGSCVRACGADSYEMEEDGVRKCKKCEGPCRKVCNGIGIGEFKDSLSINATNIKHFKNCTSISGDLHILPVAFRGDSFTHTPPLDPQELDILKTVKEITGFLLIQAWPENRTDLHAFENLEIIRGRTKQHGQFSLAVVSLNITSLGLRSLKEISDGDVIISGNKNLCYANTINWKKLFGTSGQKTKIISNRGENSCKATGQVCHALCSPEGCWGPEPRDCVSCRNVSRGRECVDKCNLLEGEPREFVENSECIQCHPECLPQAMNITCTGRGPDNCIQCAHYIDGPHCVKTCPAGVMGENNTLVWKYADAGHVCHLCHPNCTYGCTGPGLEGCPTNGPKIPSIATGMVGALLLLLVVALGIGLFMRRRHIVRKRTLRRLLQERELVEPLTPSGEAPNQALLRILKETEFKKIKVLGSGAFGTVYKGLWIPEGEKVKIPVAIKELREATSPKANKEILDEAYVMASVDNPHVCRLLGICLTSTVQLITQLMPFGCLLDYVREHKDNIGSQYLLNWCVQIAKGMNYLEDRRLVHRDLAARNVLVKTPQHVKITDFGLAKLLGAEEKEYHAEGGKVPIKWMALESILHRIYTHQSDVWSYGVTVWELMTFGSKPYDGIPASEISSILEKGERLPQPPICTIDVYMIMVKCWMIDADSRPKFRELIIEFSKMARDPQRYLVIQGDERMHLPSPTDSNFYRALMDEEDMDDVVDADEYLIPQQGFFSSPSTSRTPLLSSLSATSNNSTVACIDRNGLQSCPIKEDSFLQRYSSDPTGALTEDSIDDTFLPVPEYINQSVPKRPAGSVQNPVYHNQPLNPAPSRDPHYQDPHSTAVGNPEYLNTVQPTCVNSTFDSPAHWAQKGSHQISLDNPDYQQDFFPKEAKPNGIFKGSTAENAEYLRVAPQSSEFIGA
Method: For immunoprecipitation and immunoblotting experiments, cells were grown to confluence in 10 cm dishes and maintained in full medium or starved in serum-free medium overnight before the application of appropriate stimuli. Lysates were prepared in TBSN buffer (50 mM Tris-HCl pH7.5, 150 mM NaCl, 1 mM EDTA, 1% NP-40) supplemented with protease inhibitors (1 mM Na3 VO4, 10 mM Na4P2O7, 10 mM NaF, 5 mM EGTA, 10 mM Benzamidine, 0.2 mM PMSF and 1 μg/ml each of leupeptin, aprotinin, pepstatin). Lysates were cleared by centrifugation at 16,000×g for 10 minutes and used directly for immunoprecipitations or stored at −20° C. for further use.
Equal amounts of lysates were incubated with the appropriate antibody for 2 hours at 4° C.
Immune complexes were then allowed to bind to protein A-Sepharose beads for 1 hour at 4° C. and collected by centrifugation. Immunoprecipitates were washed three times in 100 mM Tris-HC1 pH 7.5, 100 nM NaCl, 1 mM EDTA, 0.1 mM PMSF, 0.5% NP-40. Thereafter, samples were taken up in sodium dodecyl sulphate (SDS) loading buffer and boiled for 5 min.
Samples were separated by electrophoresis through 6% polyacrylamide-SDS gels. Proteins were then transferred to polyvinylidene difluoride (PVDF) membranes with a semi-dry electroblotting apparatus. […]

[2] = tested on: autocrine factor release from BR293 cells; assay: Autocrine factor release: CM from pre-treated serum-stimulated cells tested for STAT3 phosphorylation; assay type: cell-based, human; conditions: 100 μM (FIG. 18d)
Method: OdDHL blocks the autocrine release of mitogens from BC cells (a) Equal numbers of BR293 cells were cultured in MEM alone, serum-free MEM conditioned by serum-stimulated BR293 cells for 2 hours, or the same supplemented with 5% FCS, as indicated. After 24 hours [^3H]-thymidine was added to the medium. After a further 18 hours, cells were harvested and analysed for incorporation of ^3H. Error bars denote SD (n=4). (b) BR293 cells were serum-starved (lane 1) or starved and stimulated with 10% FCS for 2 hours directly (lane 2) or after pretreatment with α-amanitin (1004/ml) for 2.5 hours (lane 3) or actinomycin D ([…]) for 10 min (lane 4). […] (c) BR293 cells were serum-starved (lane 1) or starved and stimulated with 10% FCS alone for 2 hours (lane 2), with serum-free CM alone for 15 min (lane 5) or in the presence of increasing 100 μM AG490 (lanes 3 and 6) or 100 μM OdDHL (lanes 4 and 7). Cell lysates were prepared and analysed by Western blotting as described in the legend to FIG. 1a. (d) BR293 cells were stimulated with 10% FCS in the presence of 100 μM OHHL (lane 1) or OdDHL (lane 2). After 2 hours the cells were washed and incubated for a further 2 hours in serum-free MEM. […] Lysates were prepared from all the cells and analysed by Western blotting as described in the legend to FIG. 1a.

[3] = tested on: MDA-MB-468 cells; assay: Cell proliferation assay (cell counting); assay type: cell-based, human; conditions: over a 48-hour period
Method: Equal numbers of BR293 and MDA-MB-468 cells were seeded in MEM containing 10% FCS into 10 cm dishes. […]. For the 48 time points, fresh medium containing the appropriate inhibitor was applied to the cells after 24 hours. Controls were allowed to grow for 48 hours in the absence of inhibitor. Thereafter, all the cells were washed twice with ice cold PBS, harvested and counted under a phase-contrast microscope. Values are expressed as averages+S.D. (n=3).
(§1) Equal numbers of BR293, MCF-10F, MCF-7, MDA-MB-468, HKEK293 and COS1 cells were seeded in the appropriate growth medium into 10 cm dishes. Cells were allowed to grow in the presence of various concentrations of OdDHL or OHHL for 24 or 48 hours. For the 48-hour time points, fresh medium containing the appropriate inhibitor was applied to the cells after 24 hours. Controls were allowed to grow for 48 hours in the absence of inhibitor. Thereafter, all the cells were washed twice with ice cold PBS, harvested and counted under a phase-contrast microscope. Values are expressed as averages ±S.D. (n=3).

[4] = tested on: HEK293 cells; assay: Cell proliferation assay (cell counting); assay type: cell-based, human; conditions: cells with constitutive STAT3 activity; 48 hours
Method: as §1

[5] = tested on: MCF-7 cells; assay: Cell proliferation assay (cell counting); assay type: cell-based, human; conditions: over a 48-hour period
Method: as §1

[6] = tested on: COS1 cells; assay: Cell proliferation assay (cell counting); assay type: cell-based, simian; conditions: cells expressing low levels of STAT proteins; 48 hours
Method: as §1

[7] = tested on: p38^MAPK; assay: p38 MAPK phosphorylation in anisomycin-treated cells (Western blotting); assay type: cell-based, human; conditions: BR293 cells treated with anisomycin
Method: ERKs are unaffected by OdDHL (a) BR293 cells were serum-starved (lane 1) or starved and stimulated with TPA for 30 min alone (lane 2) or in the presence of increasing concentrations of OdDHL (lanes 3-6) or 100 μM OHHL (lane 7). Cell lysates were prepared and analysed by Western blotting for ERK phosphorylation with an antibody specific for phospho-ERK½ (upper panel) and for ERK content with an antibody against ERKs (lower panel). (b) BR293 cells were serum-starved (lane 1) or starved and stimulated with Anisomycin for 30 min alone (lane 2) or in the presence of increasing concentrations of OdDHL (lanes 3-6) or 100 μM OHHL (lane 7). Cell lysates were prepared and analysed by Western blotting for JNK/SAPK phosphorylation with an antibody specific for phospho-JNKs (upper panel) and for SAPK/JNK content with an antibody against JNKs (lower panel). (c) BR293 cells were treated as described in (b) and lysates were analysed by Western blotting for p38^MAPK phosphorylation with an antibody specific for phospho-p38 (upper panel) and for p38 content with an antibody against p38 (lower panel).

[8] = tested on: STAT3; assay: EGF-induced STAT3 phosphorylation (Western blotting, Y705); assay type: cell-based, human; conditions: MDA-MB-468 cells; co-treatment 100 μM
Method: EGF-R was immunoprecipitated from cell lysates and analysed by Western blotting tyrosine phosphorylation with an anti phosphotyrosine antibody (upper panel, top) and EGF-R content with an anti-EGF-R antibody (lower panel, top). Cell lysates were analysed in parallel for STAT3 phosphorylation with an antibody specific for STAT3 phosphorylated on Y705 (upper panel, bottom) and for STAT3 content with an antibody for STAT3 (lower panel, bottom). […] The inclusion of an anti-STAT3 antibody in duplicate binding reactions (even lanes) identifies STAT3-containing heterodimers (3:1), as indicated to the right of the panel. (c) COS-1 cells were transfected with an expression vector for STAT3, a STAT3-responsive luciferase reporter (SIE2-luc) and a control gene for β-galactosidase. […] After 6 hours cells were harvsted and reporter gene expression analysed. Results are normalised against β-galactosidase values and expressed as averages +/−SD (n=3).

In the case of `CCCCCCCCCC(=O)CC(=O)N[C@H]1CCOC1=O` [OdDHL, N-(3-oxo-dodecanoyl)-L-homoserine lactone], the “receptor tyrosine phosphorylation in response to EGF stimulation” value ([1]; 100 μM and even at lower concentrations (101M as printed)) was “potentiated receptor tyrosine phosphorylation in response to EGF stimulation several fold”, the “tyrosine phosphorylation of the EGF-R in unstimulated cells” value ([1]; OdDHL alone at 100 μM) was “caused an increase in detectable tyrosine phosphorylation of the EGF-R” and the “STAT3 phosphorylation induced by CM from serum-stimulated cells pre-treated with the compound” value [2] was “unable to stimulate STAT3 phosphorylation; also recorded: failed to induce STAT3 phosphorylation”. For the same molecule, the inhibition of proliferation [3] was 70%-80%, the “growth sensitivity to treatment” value [4] was “sensitive” and the inhibition of proliferation [5] was 70%-80%. The effect on proliferation [6] was “unaffected”, the “p38^MAPK phosphorylation” value [7] was “modest but reproducible inhibition” and the “STAT3 phosphorylation in response to EGF” value [8] was “augmented”.
